Each structure is given as a SMILES string. Some results are limits rather than exact numbers.

In assay [1] the test system is genotype A, "Long" strain RSV. Kind of assay: RSV-A assay (CPE, ATPlite readout in Hep-2 cells). It is filed as cell-based. The conditions noted are these: human respiratory syncytial virus, HEp-2, Hep-2 cells, genotype A "Long" strain RSV, MOI 0.1; read-out: Human RSV-A (“Long” strain) EC50. In a few lines:
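Protection from RSV-induced cytopathic effect, measured as ATPlite luminescence after 5 days, gave EC50 values. Assay used genotype A Long strain at MOI 0.1 on Hep-2 cells seeded at 8,000/well in DMEM growth media with 10% FBS; compounds tested as 2-fold dilutions in duplicate.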

Assay [2] deals with recombinant HMPV CAN97-83 (MPV-GFP1). Kind of assay: HMPV antiviral assay (MPV-GFP1 eGFP fluorescence in Vero E6 cells). It is filed as cell-based. The note with it: human metapneumovirus, Vero C1008, 120 h, read-out: HMPV EC50. How it is done:
HMPV antiviral activity was evaluated using a recombinant version of HMPV CAN97-83 engineered to contain the coding sequence for enhanced green fluorescence protein (eGFP) in the 3′ end of the virus genome (MPV-GFP1, ViraTree). Vero E6 cells ([…]) were seeded at a density of 12,000 cells/100 μL/well into 96-well cell plates one day prior to the assay. On the day of screening, the cell culture medium was aspirated from the wells and cells were washed twice with serum-free Eagle's Modified Essential Medium (EMEM, ATCC #) containing 1% penicillin-streptomycin (Invitrogen) (SF-EMEM). Cell washes were performed by dispensing 100 μL SF-EMEM per well and immediately aspirating the wash medium from the well. Following the second wash step, serum-free OptiMEM (Invitrogen, Cat No.) (SF-OptiMEM) containing 0.5 μg/mL TPCK-Trypsin (VENDOR) and 1% penicillin-streptomycin was added to the cells at 50 μL/well. Compounds were added into the 96-well plates using a JANUS automated liquid handling system (VENDOR). Compounds were initially diluted 1:50 into an intermediate 96-well plate containing SF-OptiMEM prior to transfer to the assay plate (25 μL/well). Each of the test compounds were tested in duplicate wells at final concentrations starting from 8 μM or 2 μM using ½ stepwise dilutions for a total of 8 points. Virus infection was performed by preparing a working stock of MPV-GFP1 at a multiplicity of infection (MOI) equal to 0.05/25 μL and aliquoting 25 μL of virus inoculum to the compound and positive control wells. SF-OptiMEM was added (25 μL/well) to the appropriate wells to serve as a virus-free negative control for the assay. The final DMSO concentration of all wells is 0.5%. Plates were incubated at 32° C., 5% CO2 for 5 days.
After 5 days incubation, eGFP fluorescence intensity was measured at […] using a Spectramax i3X plate reader (VENDOR). Percent viral inhibition was calculated using the following equation: y=[[…]−(XQ/XP)]×100 Where XQ is the fluorescence intensity measured in a well containing recombinant MPV-GFP1-infected, compound-treated cells and XP is the average fluorescence intensity measured in the wells containing untreated cells infected with recombinant virus. EC50 values were then calculated by non-linear regression using a four parameter curve logistic equation. The curve fit model employed was XLFit Dose Response One Site Model 200: y=(A+(B/(1+((x/C)^D)))) Where A is the minimum y value, B is the maximum y value, C is the log EC50 value, and D is the slope factor. […] EC50 ranges are as follows: A<0.5 μM; B>0.5 μM.

One may read the EC50 as the midpoint of the concentration-response curve. On to `C[C@]1(CNCC2CC2)COc2c1cc([C@@](O)(CNC(=O)c1ccnc(C(F)(F)F)n1)C(F)(F)F)nc2-c1ccc(F)cc1` [Example 35], for which the EC50 in assay [1] is > 200 nM; in assay [2], > 500 nM.

Take `COc1ncc(C(=O)NC[C@](O)(c2cc3c(c(-c4ccc(F)cc4)n2)OC[C@]3(C)CNCC2CC2)C(F)(F)F)s1` [Example 36]: the EC50 in assay [1] is > 200 nM; in assay [2], > 500 nM.

Regarding `COc1cc(C(=O)NC[C@](O)(c2cc3c(c(-c4ccc(F)cc4)n2)OC[C@]3(C)CNCC2CC2)C(F)(F)F)ccn1` [Example 37], the EC50 in assay [1] was > 200 nM; in assay [2] it was > 500 nM.

For the compound `COc1cc(C(=O)NC[C@](O)(c2cc3c(c(-c4ccc(F)cc4)n2)OC[C@]3(C)CNC2(C)CC2)C(F)(F)F)cc2cccnc12` [Example 44], the EC50 was < 200 nM in assay [1] and > 500 nM in assay [2].

Consider `CNC(=O)[C@@]1(C)COc2c1cc([C@@](O)(CNC(=O)c1cc(OC)c3ncccc3c1)C(F)(F)F)nc2-c1ccc(F)cc1` [Example 46], for which the EC50 in assay [1] is < 200 nM; in assay [2], < 500 nM.

Take `COc1cc(C(=O)NC[C@](O)(c2cc3c(c(-c4ccc(F)cc4)n2)OC[C@]3(C)C(=O)NC2COC2)C(F)(F)F)cc2cccnc12` [Example 52]: the EC50 in assay [1] is < 200 nM; in assay [2], < 500 nM.

As for `COc1cc(C(=O)NC[C@](O)(c2cc3c(c(-c4ccc(F)cc4)n2)OC[C@]3(C)C(=O)NO)C(F)(F)F)cc2cccnc12` [Example 53], the EC50 in assay [1] is < 200 nM; in assay [2], > 500 nM.

Turning to `CCNC(=O)[C@@]1(C)COc2c1cc([C@@](O)(CNC(=O)c1cc(OC)c3ncccc3c1)C(F)(F)F)nc2-c1ccc(F)cc1` [Example 56], the EC50 was < 200 nM in assay [1] and < 500 nM in assay [2].

Turning to `C[C@]1(C(N)=O)COc2c1cc([C@@](O)(CNC(=O)c1cc(OC3CC3)c3ncccc3c1)C(F)(F)F)nc2-c1ccc(F)cc1` [Example 61], the EC50 in assay [1] was < 200 nM; in assay [2], < 500 nM.

Regarding `COc1cc(C(=O)NC[C@](O)(c2cc3c(c(-c4ccc(F)cc4)n2)OC[C@]3(C)C(N)=O)C(F)(F)F)ccc1OC1CC1` [Example 62], the EC50 in assay [1] was < 200 nM; in assay [2] it was < 500 nM.

Take `COc1cc(C(=O)NC[C@](O)(c2cc3c(c(-c4ccc(F)cc4)n2)OC[C@]3(C)C(N)=O)C(F)(F)F)cc2ccccc12` [Example 69]: the EC50 in assay [1] is > 200 nM; in assay [2], > 500 nM.

On to `COc1cc(C(=O)NC[C@](O)(c2cc3c(c(-c4ccc(F)cc4)n2)OC[C@]3(C)CC#N)C(F)(F)F)cc2cccnc12` [Example 74], for which the results for the EC50 in assay [1] and in assay [2] were < 200 nM and < 500 nM, respectively.

For the compound `COc1cc(C(=O)NC[C@](O)(c2cc3c(c(-c4ccc(F)cc4)n2)OC[C@]3(C)CC(N)=O)C(F)(F)F)cc2cccnc12` [Example 75], the figures for the EC50 in assay [1] and in assay [2] were < 200 nM and > 500 nM, respectively.

For `C[C@]1(C(N)=O)COc2c1cc([C@](O)(CNC(=O)c1cc(OC3CC3)c3ncccc3c1)C(F)(F)F)nc2-c1ccc(F)c(Cl)c1` [Example 79], the EC50 was < 200 nM in assay [1] and < 500 nM in assay [2].

For `C[C@]1(C(N)=O)COc2c1cc([C@](O)(CNC(=O)c1cc(OC3CC3)c3ncccc3c1)C(F)(F)F)nc2-c1ccc(F)c(F)c1` [Example 80], the results for the EC50 in assay [1] and in assay [2] were < 200 nM and < 500 nM, respectively.

`C[C@]1(C(N)=O)COc2c1cc([C@](O)(CNC(=O)c1cc(OC3CC3)c3ncccc3c1)C(F)(F)F)nc2-c1csc2c(F)cccc12` [Example 81]: the figures for the EC50 in assay [1] and in assay [2] were < 200 nM and < 500 nM, respectively.

Turning to `C[C@]1(C(N)=O)COc2c1cc([C@](O)(CNC(=O)c1cc(OC3CC3)c3ncccc3c1)C(F)(F)F)nc2-c1ccc(C(F)(F)F)cc1` [Example 82], the EC50 is < 200 nM in assay [1] and > 500 nM in assay [2].

For `C[C@]1(C(N)=O)COc2c1cc([C@](O)(CNC(=O)c1cc(OC3CC3)c3ncccc3c1)C(F)(F)F)nc2-c1ccc(C#N)cc1` [Example 83], the EC50 in assay [1] is < 200 nM; in assay [2] it was > 500 nM.

In the case of `C[C@]1(C(N)=O)COc2c1cc([C@](O)(CNC(=O)c1cc(OC3CC3)c3ncccc3c1)C(F)(F)F)nc2-c1ccc(F)c(C#N)c1` [Example 84], the EC50 in assay [1] was > 200 nM; in assay [2] it was > 500 nM.

Consider `C[C@]1(C(N)=O)COc2c1cc([C@@](O)(CNC(=O)c1cc(OC3CC3)c3ncccc3c1)C(F)(F)F)nc2-c1ccc(F)c(C(F)(F)F)c1` [Example 85], for which the EC50 in assay [1] was < 200 nM; in assay [2] it was < 500 nM.

`COc1cc(C(=O)NC[C@](O)(c2cc3c(c(-c4ccc(F)c(Cl)c4)n2)OC[C@]3(C)C(N)=O)C(F)(F)F)cc2cccnc12` [Example 86]: the EC50 in assay [1] was < 200 nM; in assay [2], < 500 nM.

For `COc1cc(C(=O)NC[C@](O)(c2cc3c(c(-c4ccc(F)c(F)c4)n2)OC[C@]3(C)C(N)=O)C(F)(F)F)cc2cccnc12` [Example 87], the EC50 in assay [1] was < 200 nM; in assay [2], > 500 nM.

Consider `COc1cc(C(=O)NC[C@](O)(c2cc3c(c(-c4ccc(F)c(Cl)c4)n2)OC[C@]3(C)C(N)=O)C(F)(F)F)ccc1OC1CC1` [Example 88], for which the EC50 in assay [1] was < 200 nM; in assay [2] it was < 500 nM.

Take `COc1cc(C(=O)NC[C@](O)(c2cc3c(c(-c4ccc(F)c(F)c4)n2)OC[C@]3(C)C(N)=O)C(F)(F)F)ccc1OC1CC1` [Example 89]: the EC50 in assay [1] is < 200 nM; in assay [2], < 500 nM.

Consider `C[C@]1(C(N)=O)COc2c1cc([C@@](O)(CNC(=O)c1ccc(OC3CC3)c(OC3CC3)c1)C(F)(F)F)nc2-c1ccc(F)c(Cl)c1` [Example 90], for which the EC50 was < 200 nM in assay [1] and < 500 nM in assay [2].

With `C[C@]1(C(N)=O)COc2c1cc([C@@](O)(CNC(=O)c1ccc(OC3CC3)c(OC3CC3)c1)C(F)(F)F)nc2-c1ccc(F)c(F)c1` [Example 91], the EC50 in assay [1] was < 200 nM; in assay [2] it was < 500 nM.

With `C[C@]1(C(N)=O)COc2c1cc([C@@](O)(CNC(=O)c1ccc(OC3CC3)c(OC3CC3)c1)C(F)(F)F)nc2-c1csc2c(F)cccc12` [Example 92], the EC50 in assay [1] is < 200 nM; in assay [2], < 500 nM.

For `C[C@]1(C(N)=O)COc2c1cc([C@@](O)(CNC(=O)c1ccc(OC3CC3)c(OC3CC3)c1)C(F)(F)F)nc2-c1ccc(C(F)(F)F)cc1` [Example 93], the EC50 is < 200 nM in assay [1] and > 500 nM in assay [2].

In the case of `C[C@]1(C(N)=O)COc2c1cc([C@@](O)(CNC(=O)c1ccc(OC3CC3)c(OC3CC3)c1)C(F)(F)F)nc2-c1ccc(C#N)cc1` [Example 94], the EC50 is < 200 nM in assay [1] and < 500 nM in assay [2].

As for `C[C@]1(C(N)=O)COc2c1cc([C@@](O)(CNC(=O)c1ccc(OC3CC3)c(OC3CC3)c1)C(F)(F)F)nc2-c1ccc(F)c(C#N)c1` [Example 95], the EC50 is < 200 nM in assay [1] and > 500 nM in assay [2].

With `C[C@]1(C(N)=O)COc2c1cc([C@@](O)(CNC(=O)c1ccc(OC3CC3)c(OC3CC3)c1)C(F)(F)F)nc2-c1ccc(F)c(C(F)(F)F)c1` [Example 96], the EC50 was < 200 nM in assay [1] and < 500 nM in assay [2].

Turning to `Cc1cncc(-c2cc(C(=O)NC[C@](O)(c3cc4c(c(-c5ccc(F)cc5)n3)OC[C@]4(C)C(N)=O)C(F)(F)F)ccc2OC2CC2)c1` [Example 103], the EC50 in assay [1] is < 200 nM; in assay [2] it was > 500 nM.

(Values after patent US11505558B1, “Antiviral heterocyclic compounds” (Enanta Pharmaceuticals, Inc., priority 2019, dated 2022).)
